The test system of data set [1] is coliform organisms. Nature of the data set: Disinfection of wet-weather sewage by the system of FIGS. 1 to 3 (Example 3), coliform organism count. Format: cell-based. As for the experimental part: Examples of the present invention will now be described, but the invention is not restricted thereby. Drainage was treated by the system show in FIGS. 1 to 3. In all of RUN 1 to RUN 4, the amount of the disinfectant being 0 (zero) corresponds to the incoming water quality of wet-weather sewage which has flowed into rainwater removal facilities.

Data set [2] relates to aquatic organisms. Particulars: calculated as active chlorine (Cl2); aquatic organisms in public waters; cited from earlier work.
For data set [3], the system named is coliform organisms. Briefly: Sterilization test of treated drainage from marine product processing (Example 2). The format is cell-based. Particulars: for Coliform organism count: marine product processing drainage (initial 320000 CFU/mL). As for the experimental part:
Drainage from the marine product processing industry was subjected to coagulation, pressurization, floating, and separation. Then, the drainage was further treated by an activated sludge process. The resulting drainage was used as water to be treated. A sterilization test of this water to be treated was conducted, with the concentration of a disinfectant being varied. [table]

Data set [4] concerns coliform organisms. Briefly: Sterilization test of coliform organisms in treated sewage (Example 1). The format is cell-based. Particulars: for Coliform organism count: treated sewage (initial 12600 CFU/mL). As for the experimental part: Treated sewage containing coliform organisms, as water to be treated, was subjected to a sterilization test. As a disinfectant, each of 1-bromo-3-chloro-5,5-dimethylhydantoin (hereinafter referred to as BCDMH) (Example 1) and sodium hypochlorite (Comparative Example 1) was used. The sterilization test of coliform organisms was conducted, with the concentration of the disinfectant being varied.
In the present specification, the proportion of the disinfectant added is expressed as active chlorine for each of the bromine-based disinfectant and the chlorine-based disinfectant, and is expressed as “mg/L as Cl” calculated as the active chlorine concentration. For example, when 1 g of BCDMH is added to 1 liter of drainage, its concentration is 540 mg/L as Cl.

Setting [5] is: disinfectant added 2.0 mg/L as Cl.

SMILES strings stand for the structures. In brackets after ≈: the same amount, converted by molar mass.

For orientation: LC50 means the concentration lethal to half of the exposed cells or organisms.

Take `CC1(C)C(=O)N(Cl)C(=O)N1Br` [BCDMH, 1-bromo-3-chloro-5,5-dimethylhydantoin]: the Coliform organism count in data set [1] (RUN 1, sewage 120 m^3/h (incoming 97 × 10^3), amount added 6.0 mg/l as chlorine (Cl2)) is 83 × 10^2 CFU/ml; in data set [1] (RUN 1, sewage 120 m^3/h (incoming 97 × 10^3), amount added 12.0 mg/l as chlorine (Cl2)) it was “less than 3,000 CFU/ml”; in data set [1] (RUN 2, sewage 250 m^3/h (incoming 68 × 10^3), amount added 5.0 mg/l as chlorine (Cl2)), “less than 3,000 CFU/ml”; in data set [1] (RUN 2, sewage 250 m^3/h (incoming 68 × 10^3), amount added 5.0 mg/l as chlorine (Cl2), listed as A), 18 × 10^2 CFU/ml; in data set [1] (RUN 2, sewage 250 m^3/h (incoming 68 × 10^3), amount added 10.0 mg/l as chlorine (Cl2)), 20 or less CFU/ml; in data set [1] (RUN 3, sewage 530 m^3/h (incoming 39 × 10^3), amount added 3.0 mg/l as chlorine (Cl2)), 28 × 10^2 CFU/ml. Further, the Coliform organism count was 52000 CFU/mL in data set [3] (disinfectant added 2.0 mg/L as C1); 1200 CFU/mL in data set [3] (disinfectant added 3.0 mg/L as C1); “Not detected” in data set [3] (disinfectant added 3.5 mg/L as C1); 10800 CFU/mL in data set [4] (disinfectant added 0.5 mg/L as Cl); 70 CFU/mL in data set [4] (disinfectant added 1.5 mg/L as Cl); “Not detected” in data set [4] (setting [5]). For the same compound, the “duration of contact with combined sewer overflow for appropriate disinfection” value in data set [1] (RUN 3, sewage 530 m^3/hour, amount added 3 to 4.5 mg/l) is “about 50 seconds”. The LC50 in data set [2] was 0.4 µg/mL (≈ 1.66 µM). Moreover, the “concentration exhibiting germicidal effect relative to the concentration of sodium hypochlorite” value in data set [3] (marine product processing drainage, Example 2) is on record as “⅓”; in data set [4] (treated sewage, Example 1), “a half or less”. Also, the “reaction time to show sufficient effect” value in data set [4] (treated sewage, Example 1) turned out to be 1 min.

For the compound `OCl` [Sodium hypochlorite, sodium hypochlorite, reference compound], the Coliform organism count in data set [1] (RUN 4, sewage 250 m^3/h (incoming 46 × 10^3), amount added 30 mg/l as chlorine (Cl2)) was 19 × 10^3 CFU/ml; in data set [1] (RUN 4, sewage 250 m^3/h (incoming 46 × 10^3), amount added 60 mg/l as chlorine (Cl2)) it was > 3,000 CFU/ml; in data set [1] (RUN 4, sewage 250 m^3/h (incoming 46 × 10^3), amount added 60 mg/l as chlorine (Cl2), listed as B) it was 41 × 10^2 CFU/ml; in data set [3] (disinfectant added 6 mg/L as C1), 135000 CFU/mL; in data set [3] (disinfectant added 8 mg/L as C1) it was 1900 CFU/mL; in data set [3] (disinfectant added 10 mg/L as C1), 900 CFU/mL. For the same compound, the Coliform organism count result is “Not detected” in data set [3] (disinfectant added 12 mg/L as C1); 11800 CFU/mL in data set [4] (setting [5]); 2800 CFU/mL in data set [4] (disinfectant added 2.5 mg/L as Cl); 300 CFU/mL in data set [4] (disinfectant added 3.0 mg/L as Cl); “Not detected” in data set [4] (disinfectant added 3.5 mg/L as Cl). The “reaction time to show sufficient effect” value in data set [4] (treated sewage, Example 1) was “more than 5 minute”.

The values are drawn from patent publication US6562244B1, “Method and apparatus for disinfecting drainage” (Ebara Corporation, priority 1998, dated 2003).
